For assay [1], the target named is T1, And-1 protein fused to a luciferase reporter gene (Homo sapiens, UniProt O75717).
T1 sequence (O75717 1-1129): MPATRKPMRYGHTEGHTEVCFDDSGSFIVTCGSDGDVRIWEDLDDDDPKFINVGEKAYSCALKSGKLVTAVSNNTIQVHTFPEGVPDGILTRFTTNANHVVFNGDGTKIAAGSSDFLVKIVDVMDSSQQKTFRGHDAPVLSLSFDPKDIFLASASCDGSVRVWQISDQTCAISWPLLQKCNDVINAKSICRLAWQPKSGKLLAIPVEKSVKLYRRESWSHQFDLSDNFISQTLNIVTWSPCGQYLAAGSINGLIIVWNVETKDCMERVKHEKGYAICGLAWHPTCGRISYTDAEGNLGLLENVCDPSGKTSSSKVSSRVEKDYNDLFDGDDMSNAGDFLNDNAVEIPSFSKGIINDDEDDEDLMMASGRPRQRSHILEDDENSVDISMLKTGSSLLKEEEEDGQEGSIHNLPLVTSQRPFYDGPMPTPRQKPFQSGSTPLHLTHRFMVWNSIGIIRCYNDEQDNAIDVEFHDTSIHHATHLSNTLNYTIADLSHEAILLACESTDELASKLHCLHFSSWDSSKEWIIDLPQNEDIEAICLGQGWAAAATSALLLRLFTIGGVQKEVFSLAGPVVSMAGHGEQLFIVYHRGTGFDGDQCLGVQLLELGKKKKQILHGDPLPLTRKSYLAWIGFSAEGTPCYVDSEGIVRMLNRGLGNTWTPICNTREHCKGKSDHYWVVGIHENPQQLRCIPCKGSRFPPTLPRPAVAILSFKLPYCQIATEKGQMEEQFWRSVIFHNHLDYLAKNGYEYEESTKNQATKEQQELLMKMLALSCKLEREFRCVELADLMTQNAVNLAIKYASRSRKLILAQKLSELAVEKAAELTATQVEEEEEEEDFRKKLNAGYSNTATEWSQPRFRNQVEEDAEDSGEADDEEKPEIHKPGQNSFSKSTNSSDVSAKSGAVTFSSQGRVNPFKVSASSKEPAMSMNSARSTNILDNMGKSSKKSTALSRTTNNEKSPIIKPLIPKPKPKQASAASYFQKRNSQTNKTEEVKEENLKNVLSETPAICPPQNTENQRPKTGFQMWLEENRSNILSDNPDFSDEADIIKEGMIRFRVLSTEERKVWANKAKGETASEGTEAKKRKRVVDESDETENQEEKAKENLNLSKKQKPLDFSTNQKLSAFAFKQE
Description: quantitative HTS (qHTS) of LOPAC library in HEK293T-And-1-Luc cells (luciferase read-out of And-1 level). It is filed as cell-based. The note with it: HTS assay. From the text: To identify And-1 specific pharmacologic inhibitors, a high-throughput screening (HTS) assay was established to identify small molecules that can inhibit And-1 by inducing its degradation. For this assay, two stable cell lines, a HEK293T-And-1-Luc cell expressing And-1 protein fused to a luciferase reporter gene, and a HEK293T-Luc cell expressing luciferase only were generated (FIG. 13A). HEK293T-And-1-Luc cells allowed for assessment of And-1 protein levels by measuring luciferase activity in a high throughput manner.

In the next assay the test system is SREBP target gene SCD-1. Description: RT-PCR detection of SCD-1 gene expression in AN3CA cells. It is filed as cell-based, human. The note with it: 10 μM; for Relative mRNA expression of SCD-1: 48 h, DMSO = 1. As for the experimental part:
• 1. Experimental reagent • 2. The experimental steps are as follows: • 2.1 AN3CA cell recovery and culture (10% serum 1% double antibody in MEM medium); • 2.2 passages (passage at a ratio of 1:2); • 2.3 Place 6 well plates when the cell status is good, 5×10^5Well, culture overnight; • 2.4 adding medicine: diluting the final concentration of the drug with a culture medium to 10 μM, 2 mL/well; • 2.5 adding medicine for 48 h, and then extracting RNA; • 2.5.1 removing the culture medium, adding 0.5 mL/hole Trizol to lyse the cells, repeatedly blowing and beating the cells by a pipette after 5 min, completely lysing the cells, transferring the cells into a 1.5 mL EP tube without RNase, and standing the tube for 5 min; • 2.5.2 adding 200 µl chloroform, shaking rapidly, mixing, standing for 10 min 12000 rpm/15 min; • 2.5.3 carefully taking out the supernatant, transferring the supernatant into an EP tube, adding isopropanol with the same volume, reversing, uniformly mixing, standing for 10 min, and centrifuging at 12000 rpm/10 min; • 2.5.4 removing the supernatant, adding 1 mL of 75% ethanol for washing, centrifuging at 8000 rpm/5 min once, carefully removing the supernatant, standing at room temperature for 10 min to volatilize the ethanol, and dissolving the precipitate with 40 μL of DEPC treated water when the precipitate becomes transparent; • 2.5.5 RNA concentration was measured and DEPC-treated water was diluted to 100 ng/μL • 2.6 reverse transcription: Kit Takara (PrimeScript RT reagent Kit (Perfect Real Time)

In assay [2] the target is T2, And-1 (Homo sapiens, UniProt O75717).
T2 sequence (O75717 1-1129): T1 sequence (O75717 1-1129)
In words: inhibition of And-1 in IGROV1 CR cells. It is filed as cell-based. Also noted: endogenous in cells; host or cells: IGROV1 CR. The settings on record: inhibition of And-1, IGROV1 CR cells.

In assay [3] the target is T2, And-1. Description: inhibition of And-1 in OV90 CR cells. It is filed as cell-based. Also noted: endogenous in cells. The settings on record: inhibition of And-1, OV90 CR cells.
Assay [4] concerns the target T2, And-1. In words: immunoblot analysis of And-1 expression in IGROV1 cells. It is filed as cell-based. The note with it: immunoblot, read-out: IC50 for inhibition of And-1 expression. Also noted: endogenous in cells; host or cells: IGROV1 CR. As for the experimental part: The high IC50 of resveratrol compromises its potential clinical application; therefore, resveratrol was used as a lead compound to screen 12 analogs of resveratrol for potent compounds that can inhibit And-1 (FIG. 14). […] To perform immunoblot analyses, cells were first treated with increasing concentrations of the 12 analogs. After treatment, the cells were harvested and then lysed with RIPA buffer protease inhibitor and phosphatase inhibitor cocktail. Protein concentration was determined by the BCA protein assay. Equal amounts of whole cell lysates were separated on sodium dodecyl sulfate polyacrylamide gel electrophoresis (SDS-PAGE) and transferred onto nitrocellulose membranes. Membranes were then incubated in blocking solution (5% non-fat milk in 20 mM TRIS-HCl, 150 mM NaCl, 0.1% Tween-20) (TBST), followed by incubation with the indicated antibodies at 4° C. overnight. The membranes were then washed in TBST and incubated with HRP-conjugated secondary antibodies for 1 hour at room temperature (21° C.±2° C.). Antibody detection was performed with an enhanced chemiluminescence reaction.

Setting [5] is: determination 1, read-out: IC50 (μM) 1.
Setting [6] is: average of 1 and 2, read-out: IC50 (μM) average.
[7] abbreviates: determination 2, read-out: IC50 (μM) 2.

Structures can show the parent of a compound that is named as a salt. Where two headings read alike, the source gives them in different places.

Usually IC50 stands for the concentration needed to halve the response being measured.

On to `CC[C@@]1(O)C(=O)OCc2c1cc1n(c2=O)Cc2cc3c(CN(C)C)c(O)ccc3nc2-1` [Topotecan hydrochloride hydrate], for which, in assay [1] (setting [5]), the DC50 is 0.61 µM. For the same compound, the “IC50 (μM) 2” value in assay [1] (determination 2) was “inactive”.
On to `COc1cc2c(cc1O)CC[C@@H]1[C@@H]2CC[C@]2(C)[C@@H](O)CC[C@@H]12` [2-methoxyestradiol], for which the half-inhibitory concentration (IC50) in assay [1] (setting [5]) turned out to be 1.67 µM. The “IC50 (μM) 2” value in assay [1] (determination 2) is “inactive”.
With `CNc1ccc2oc(C[C@H]3O[C@@]4(CC[C@H]3C)O[C@H]([C@H](C)C(=O)c3ccc[nH]3)[C@H](C)C[C@H]4C)nc2c1C(=O)O` [Calcimycin], the IC50 in assay [1] (setting [6]) was 8.32 µM; in assay [1] (setting [5]) it was 6.1 µM; in assay [1] (setting [7]), 10.5 µM.
For `OB1OCc2cc(Cl)ccc21` [travaborole, reference compound], in the assay with SREBP target gene SCD-1 (AN3CA cells), the “activity of reducing SCD-1 gene expression (in words)” value was “do not have the activity of reducing the expression of SCD-1 gene” and the “Relative mRNA expression of SCD-1” value turned out to be 1.08.
`O=C1C(SCCO)=C(SCCO)C(=O)c2ccccc21` [NSC 95397]: the figures for the half-maximal inhibitory concentration (IC50) in assay [1] (setting [6]), in assay [1] (setting [5]) and in assay [1] (setting [7]) were 9.42 µM, 11.2 µM and 7.68 µM, respectively.
As to `Nc1ccn([C@@H]2O[C@H](CO)[C@@H](O)C2(F)F)c(=O)n1` [Gemcitabine hydrochloride], the 50% inhibitory concentration (IC50) in assay [1] (setting [5]) came to 0.02 µM. Also, in assay [1] (determination 2), the “IC50 (μM) 2” value was “inactive”.
Take `Cc1cccc(/C=C/c2ccc3c(c2)COB3O)c1` [XI, (E)-5-(3-methylstyryl)benzo[c][1,2]oxaborol-1(3H)-ol]: the IC50 against And-1 [2] worked out at 32.9 µM; on And-1 [3], 34.3 µM.
Consider `OB1OCc2cc(/C=C/c3ccc(C(F)(F)F)cc3)ccc21` [VII, (E)-5-(4-(trifluoromethyl)styryl)benzo[c][1,2]oxaborol-1(3H)-ol], for which the “Relative mRNA expression of SCD-1” value in the assay on SREBP target gene SCD-1 (AN3CA cells) was 1.07.
`OB1OCc2cc(/C=C/c3cccc(F)c3)ccc21` [IX, (E)-5-(3-fluorostyryl)benzo[c][1,2]oxaborol-1(3H)-ol]: the “Relative mRNA expression of SCD-1” value with SREBP target gene SCD-1 (AN3CA cells) is 0.72.
For the compound `CCN(CC)CCOc1ccc(Nc2ncc3cc(-c4c(Cl)cccc4Cl)c(=O)n(C)c3n2)cc1` [PD-166285 hydrate], the DC50 in assay [1] (setting [6]) came to 3.03 µM; in assay [1] (setting [5]), 3.33 µM; in assay [1] (setting [7]), 2.73 µM.
Consider `C=CCc1cccc(/C=N/NC(=O)CN2CCN(Cc3ccccc3)CC2)c1O` [PAC-1], for which the IC50 in assay [1] (setting [6]) is 21.3 µM; in assay [1] (setting [5]), 18.8 µM; in assay [1] (setting [7]) it was 23.8 µM.
For the compound `OB1OCc2cc(/C=C/c3ccccc3)ccc21` [XIII, (E)-5-styrylbenzo[c][1,2]oxaborol-1(3H)-ol], the IC50 against And-1 [2] turned out to be 41 µM; against And-1 [3], 45.6 µM. Besides, the “Relative mRNA expression of SCD-1” value in the assay on SREBP target gene SCD-1 (AN3CA cells) was determined as 0.71.
Turning to `C/C=C(/C)C(=O)O[C@H]1C(C)=C2[C@H]([C@@H]1OC(=O)CCCCCCC)[C@@](C)(OC(C)=O)C[C@H](OC(=O)CCC)[C@@]1(O)[C@H]2OC(=O)[C@@]1(C)O` [Thapsigargin], the IC50 in assay [1] (setting [6]) worked out at 6.95 µM; in assay [1] (setting [5]), 13.3 µM; in assay [1] (setting [7]) it was 0.63 µM.
For `OB1OCc2cc(/C=C/c3cccc(Cl)c3)ccc21` [X, (E)-5-(3-chlorostyryl)benzo[c][1,2]oxaborol-1(3H)-ol], the 50% inhibitory concentration (IC50) against And-1 [2] was found to be 19.2 µM; at And-1 [3], 20.6 µM. In addition, in the assay on SREBP target gene SCD-1 (AN3CA cells), the “Relative mRNA expression of SCD-1” value came out at 0.56. For the same compound, in the assay on SREBP target gene SCD-1 (human endometrial cancer AN3CA cells), the “inhibitory effect on Srebp” value is given as “high inhibitory effect”.
Turning to `CC[n+]1c(/C=C/C=C2/N(C)c3ccccc3C2(C)C)sc2ccccc21` [AC-93253 iodide], the IC50 in assay [1] (setting [6]) is 0.76 µM; in assay [1] (setting [5]), 1.09 µM; in assay [1] (setting [7]), 0.44 µM.
Turning to `COCCOC(=O)C1=C(C)NC(C)=C(C(=O)OC/C=C/c2ccccc2)C1c1cccc([N+](=O)[O-])c1` (stereo not drawn) [Cilnidipine], the IC50 was found to be 21.1 µM in assay [1] (setting [6]), 22.9 µM in assay [1] (setting [5]) and 19.3 µM in assay [1] (setting [7]).
`c1ccc2c(c1)[I+]c1ccccc1-2` [Diphenyleneiodonium chloride]: the half-maximal inhibitory concentration (IC50) in assay [1] (setting [6]) came to 0.43 µM; in assay [1] (setting [5]), 0.84 µM; in assay [1] (setting [7]), 0.03 µM.
`OB1OCc2cc(/C=C/c3ccccc3C(F)(F)F)ccc21` [VI, (E)-5-(2-(trifluoromethyl)styryl)benzo[c][1,2]oxaborol-1(3H)-ol]: the “Relative mRNA expression of SCD-1” value with SREBP target gene SCD-1 (AN3CA cells) turned out to be 1.03.
Regarding `COc1cccc(/C=C/c2ccc3c(c2)COB3O)c1` [XII, (E)-5-(3-methoxystyryl)benzo[c][1,2]oxaborol-1(3H)-ol], the results for the IC50 on And-1 [2] and against And-1 [3] were 34.1 µM and 37.4 µM, respectively. Moreover, the “Relative mRNA expression of SCD-1” value with SREBP target gene SCD-1 (AN3CA cells) came to 0.62.
On to `CC[C@@]1(O)C(=O)OCc2c1cc1n(c2=O)Cc2cc3ccccc3nc2-1` [(S)-(+)-Camptothecin], for which the IC50 in assay [1] (setting [5]) amounted to 0.73 µM. Also, the “IC50 (μM) 2” value in assay [1] (determination 2) was “inactive”.
Regarding `OB1OCc2cc(/C=C/c3cc(F)cc(C(F)(F)F)c3)ccc21` [V], in the assay on SREBP target gene SCD-1 (AN3CA cells), the “Relative mRNA expression of SCD-1” value was determined as 0.72.
For the compound `Oc1ccc(C=Cc2cc(O)cc(O)c2)cc1` [Resveratrol], the DC50 at And-1 [4] amounted to 16.7 µM; in assay [1] (setting [6]), 18.9 µM; in assay [1] (setting [5]) it was 14.9 µM; in assay [1] (setting [7]), 22.9 µM.

These data come from patent US12258360B2, “Compositions and methods for treatment of anticancer-drug resistant cancers” (THE GEORGE WASHINGTON UNIVERSITY, priority 2020, dated 2025).
